The record followed here is US9855268B2, “Triazolo[4,5-d]pyrimidine derivatives” (Merck Patent GmbH, priority 2013, dated 2018).

The target of one assay is GSK3β(h) (Homo sapiens, UniProt P49841). The assay is described as follows: GSK3β radiometric kinase assay (33P-ATP, phospho GS2 peptide). In kind it is biochemical. Particulars: read-out: IC50 GSK3β (enzyme assay). The procedure: GSK3β(h) is incubated with 8 mM MOPS pH 7,0, 0,2 mM EDTA, 20 μM
[…](p)EDEEE (phosphor GS2 peptide), 10 mM Mg-acetate and [gamma-33P-ATP](specific activity approx. 500 cpm/Pmol, concentration as required). The reaction is initiated by the addition of the MgATP. After incubation for 40 minutes at the room temperature, the Reaction is stopped by the addition of 3% phosphoric acid solution. 10 μL of reaction is then spotted onto a P30 filtermat and washed three times for 5 minutes in 50 mM phosphoric acid and once in methanol prior to drying and scintillation counting.

The target in assay [1] is T1, GCN2 (Homo sapiens, UniProt Q9P2K8). The assay can be described thus: Cellular assay of GCN2 activity (phospho-eIF2alpha immunocytochemistry after tryptophanol). The assay is classed as cell-based. Also noted: endogenous in cells; host or cells: U2OS. Particulars: Human U2OS cells, 2 h compound, 600 μM tryptophanol 30 min. In outline:
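Readout in human U2OS cells: compound pretreatment 2 h, then tryptophanol (600 μM final) for 30 min to trigger GCN2 signalling. Fixed, permeabilised cells quantified by immunocytochemistry for phosphorylation, normalised to DMSO controls as % effect; IC50 from concentration-response.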
Target sequence in this assay (Q9P2K8 whole entry): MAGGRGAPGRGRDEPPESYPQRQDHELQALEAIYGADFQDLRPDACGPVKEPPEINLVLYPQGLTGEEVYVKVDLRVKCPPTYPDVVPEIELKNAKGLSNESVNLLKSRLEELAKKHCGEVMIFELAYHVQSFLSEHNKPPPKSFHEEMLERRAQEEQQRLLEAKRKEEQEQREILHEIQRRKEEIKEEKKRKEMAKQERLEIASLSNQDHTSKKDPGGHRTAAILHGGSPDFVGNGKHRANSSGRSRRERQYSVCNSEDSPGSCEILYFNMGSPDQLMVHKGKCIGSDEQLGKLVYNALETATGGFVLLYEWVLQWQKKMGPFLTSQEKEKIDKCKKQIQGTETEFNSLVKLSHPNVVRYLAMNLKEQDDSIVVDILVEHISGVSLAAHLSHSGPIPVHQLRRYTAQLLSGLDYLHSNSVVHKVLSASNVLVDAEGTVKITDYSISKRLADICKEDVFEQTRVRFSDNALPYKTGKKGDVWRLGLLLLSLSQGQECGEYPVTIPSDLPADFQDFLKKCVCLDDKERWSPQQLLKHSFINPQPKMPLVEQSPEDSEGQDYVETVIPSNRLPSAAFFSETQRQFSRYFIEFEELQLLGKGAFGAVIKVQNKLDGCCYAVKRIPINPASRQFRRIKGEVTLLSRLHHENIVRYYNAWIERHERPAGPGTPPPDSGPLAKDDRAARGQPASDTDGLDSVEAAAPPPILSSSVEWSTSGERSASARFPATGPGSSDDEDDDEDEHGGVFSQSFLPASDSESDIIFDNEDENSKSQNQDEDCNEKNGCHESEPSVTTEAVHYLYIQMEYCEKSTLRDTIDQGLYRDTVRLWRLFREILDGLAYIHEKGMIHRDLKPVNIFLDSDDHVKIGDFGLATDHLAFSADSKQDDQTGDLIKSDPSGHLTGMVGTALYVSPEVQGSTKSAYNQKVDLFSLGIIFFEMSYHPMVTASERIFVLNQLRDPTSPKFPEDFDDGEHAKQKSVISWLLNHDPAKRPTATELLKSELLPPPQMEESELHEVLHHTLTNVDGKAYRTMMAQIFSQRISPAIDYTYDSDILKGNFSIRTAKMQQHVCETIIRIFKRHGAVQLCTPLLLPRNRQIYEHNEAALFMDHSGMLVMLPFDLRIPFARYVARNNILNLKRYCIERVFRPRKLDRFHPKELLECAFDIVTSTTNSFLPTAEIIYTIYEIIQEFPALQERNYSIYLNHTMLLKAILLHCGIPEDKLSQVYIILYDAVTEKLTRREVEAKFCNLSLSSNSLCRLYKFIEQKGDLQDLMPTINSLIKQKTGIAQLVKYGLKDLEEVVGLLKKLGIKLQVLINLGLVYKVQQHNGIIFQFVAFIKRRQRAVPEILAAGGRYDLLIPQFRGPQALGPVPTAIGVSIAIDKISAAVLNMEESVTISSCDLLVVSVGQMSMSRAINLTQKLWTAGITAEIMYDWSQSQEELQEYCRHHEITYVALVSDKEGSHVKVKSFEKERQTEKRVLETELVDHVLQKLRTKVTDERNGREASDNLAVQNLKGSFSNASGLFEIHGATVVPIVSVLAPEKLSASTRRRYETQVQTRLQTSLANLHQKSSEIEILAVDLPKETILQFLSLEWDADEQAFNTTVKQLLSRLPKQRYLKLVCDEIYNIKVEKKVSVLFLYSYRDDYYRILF

Assay [2] addresses T1, GCN2. The assay can be described thus: GCN2 enzyme assay (TR-FRET Lanthascreen, GFP-eIF2alpha phosphorylation). In kind it is biochemical. Particulars: 10 μM ATP, 80 nM GFP-eIF2a, 30 nM GCN2. In outline:
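Phosphorylation of GFP-eIF2alpha (80 nM) by GCN2 run at room temperature with 10 μM ATP. After EDTA quench, product quantified by Lanthascreen TR-FRET (antibody–GFP complex, 340 nm excitation).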
Target sequence in this assay (Q9P2K8 whole entry, species assumed): as the sequence (Q9P2K8 whole entry) above
A general note: Time-resolved FRET reads energy transfer from a long-lived donor to a nearby acceptor.

The target in the next assay is GSK3α(h) (Homo sapiens, UniProt P49840). The assay can be described thus: GSK3α radiometric kinase assay (33P-ATP, phospho GS2 peptide). In kind it is biochemical. Particulars: read-out: IC50 GSK3α (enzyme assay). In outline: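 Human GSK3α incubated with 20 μM phospho-GS2 peptide in 8 mM MOPS pH 7,0, 10 mM Mg-acetate and [γ-33P]ATP (concentration as required), started with MgATP. After 40 minutes at room temperature, stopped with phosphoric acid; 33P incorporation measured by filtermat spotting and scintillation counting.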
Sequence of GSK3α(h) (P49840 whole entry): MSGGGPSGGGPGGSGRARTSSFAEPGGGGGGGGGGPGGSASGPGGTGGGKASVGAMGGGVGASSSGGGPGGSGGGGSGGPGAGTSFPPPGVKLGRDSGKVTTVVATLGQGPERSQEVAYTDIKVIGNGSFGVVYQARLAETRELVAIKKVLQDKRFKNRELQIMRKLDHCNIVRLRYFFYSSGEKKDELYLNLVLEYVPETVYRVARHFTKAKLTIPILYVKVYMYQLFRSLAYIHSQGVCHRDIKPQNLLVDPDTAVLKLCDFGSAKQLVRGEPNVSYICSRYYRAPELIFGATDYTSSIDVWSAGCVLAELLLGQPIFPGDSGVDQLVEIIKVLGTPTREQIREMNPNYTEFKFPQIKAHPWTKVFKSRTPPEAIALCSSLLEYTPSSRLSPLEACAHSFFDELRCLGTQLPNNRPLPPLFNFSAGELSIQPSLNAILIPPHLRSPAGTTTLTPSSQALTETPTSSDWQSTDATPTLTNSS

pIC50: −log10 of the molar value. Bounds are passed on as bounds.

A word on the pIC50: it is the IC50 on a negative log10 scale, so that one unit is a factor of ten.

Sequence of GSK3β(h) (P49841 whole entry): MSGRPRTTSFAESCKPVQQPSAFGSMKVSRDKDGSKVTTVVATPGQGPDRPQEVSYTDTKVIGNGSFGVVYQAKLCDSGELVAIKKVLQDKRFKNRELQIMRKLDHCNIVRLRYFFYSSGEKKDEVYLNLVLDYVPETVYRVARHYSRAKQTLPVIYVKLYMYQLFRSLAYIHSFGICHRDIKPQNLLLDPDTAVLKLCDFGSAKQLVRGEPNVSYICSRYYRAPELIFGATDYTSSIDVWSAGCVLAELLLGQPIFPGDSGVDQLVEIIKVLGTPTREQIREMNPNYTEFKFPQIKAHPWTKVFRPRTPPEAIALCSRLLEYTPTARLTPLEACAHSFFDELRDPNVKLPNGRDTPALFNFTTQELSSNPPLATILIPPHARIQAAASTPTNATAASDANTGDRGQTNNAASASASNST

Regarding `Cc1ccc2cc(-n3nnc4cnc(N[C@@H]5CCC[C@@H](C(N)=O)C5)nc43)ccc2n1` (relative stereo) [A192, (trans)-3-[3-(2-methyl-quinolin-6-yl)-3H-[1,2,3]triazolo[4,5-d]pyrimidin-5-ylamino]-cyclohexanecarboxylic acid amide], the pIC50 at GSK3β(h) is more than 6.00; against GCN2 [1] it was 5.00 to 5.30; on GCN2 [2], more than 6.00; at GSK3α(h), more than 6.00.

Regarding `CCOc1ccc(-n2nnc3cnc(N[C@@H]4CC[C@@H](O)C4)nc32)cc1` (relative stereo) [A207, (trans)-3-[3-(4-ethoxy-phenyl)-3H-[1,2,3]triazolo[4,5-d]pyrimidin-5-ylamino]-cyclopentanol], the pIC50 on GSK3β(h) was more than 6.00; on GCN2 [1] it was 5.30 to 6.00; against GCN2 [2] it was more than 6.00; at GSK3α(h) it was more than 6.00.

`NC(=O)[C@@H]1CC[C@@H](Nc2ncc3nnn(-c4ccc(I)cn4)c3n2)C1` [A177, (1R,3R)-3-[3-(5-iodo-pyridin-2-yl)-3H-[1,2,3]triazolo[4,5-d]pyrimidin-5-ylamino]-cyclopentanecarboxylic acid amide]: the pIC50 on GSK3β(h), at GCN2 [2] and at GSK3α(h) was more than 6.00 in each case.

`CCOc1ccc(-n2nnc3cnc(N[C@@H]4CC[C@@H](C(N)=O)C4)nc32)nc1` [A178, (1R,3R)-3-[3-(5-ethoxy-pyridin-2-yl)-3H-[1,2,3]triazolo[4,5-d]pyrimidin-5-ylamino]-cyclopentanecarboxylic acid amide]: the pIC50 on GSK3β(h), against GCN2 [2] and at GSK3α(h) was more than 6.00 each time.

`CCOc1ccc(-n2nnc3cnc(N[C@@H]4CC[C@@H](C(N)=O)C4)nc32)cn1` [A179, (1R,3R)-3-[3-(6-ethoxy-pyridin-3-yl)-3H-[1,2,3]triazolo[4,5-d]pyrimidin-5-ylamino]-cyclopentanecarboxylic acid amide]: the pIC50 on GSK3β(h), against GCN2 [2] and on GSK3α(h) was more than 6.00 each time.

Turning to `COc1ccc2cc(-n3nnc4cnc(N[C@@H]5CC[C@@H](C(N)=O)C5)nc43)ccc2n1` [A181, (1R,3R)-3-[3-(2-methoxy-quinolin-6-yl)-3H-[1,2,3]triazolo[4,5-d]pyrimidin-5-ylamino]-cyclopentanecarboxylic acid amide], the pIC50 at GSK3β(h), on GCN2 [2] and on GSK3α(h) was more than 6.00 each time.

For the compound `Cc1nc2cc(-n3nnc4cnc(N[C@@H]5CC[C@@H](C(N)=O)C5)nc43)ccc2n1C` [A183, (1R,3R)-3-[3-(1,2-dimethyl-1H-benzimidazol-5-yl)-3H-[1,2,3]triazolo[4,5-d]-pyrimidin-5-ylamino]-cyclopentanecarboxylic acid amide], the pIC50 at GSK3β(h), against GCN2 [2] and on GSK3α(h) was more than 6.00 throughout.

With `NC(=O)[C@@H]1CC[C@@H](Nc2ncc3nnn(-c4ccc5ncccc5n4)c3n2)C1` [A194, (1R,3R)-3-(3-[1,5]naphthyridin-2-yl-3H-[1,2,3]triazolo[4,5-d]pyrimidin-5-ylamino)-cyclopentanecarboxylic acid amide], the pIC50 on GSK3β(h), against GCN2 [2] and at GSK3α(h) was more than 6.00 each time.

With `N#CCCn1cc(-c2ccc(-n3nnc4cnc(N[C@@H]5CC[C@@H](C(N)=O)C5)nc43)cc2)cn1` [A217, (1R,3R)-3-(3-{4-[1-(2-cyano-ethyl)-1H-pyrazol-4-yl]-phenyl}-3H-[1,2,3]triazolo[4,5-d]pyrimidin-5-ylamino)-cyclopentanecarboxylic acid amide], the pIC50 on GSK3β(h), against GCN2 [2] and on GSK3α(h) was more than 6.00 in each case.

As for `COCCn1cc(-c2ccc(-n3nnc4cnc(N[C@@H]5CC[C@@H](C(N)=O)C5)nc43)nc2)cn1` [A219, (1R,3R)-3-(3-{5-[1-(2-methoxy-ethyl)-1H-pyrazol-4-yl]-pyridin-2-yl}-3H-[1,2,3]triazolo[4,5-d]pyrimidin-5-ylamino)-cyclopentanecarboxylic acid amide], the pIC50 on GSK3β(h) is more than 6.00; on GCN2 [2] it was 5.30 to 6.00; on GSK3α(h) it was more than 6.00.

As for `COCCn1cc(-c2cccc(-n3nnc4cnc(N[C@@H]5CC[C@@H](C(N)=O)C5)nc43)c2)cn1` [A222, (1R,3R)-3-(3-{3-[1-(2-methoxy-ethyl)-1H-pyrazol-4-yl]-phenyl}-3H-[1,2,3]triazolo[4,5-d]pyrimidin-5-ylamino)-cyclopentanecarboxylic acid amide], the pIC50 on GSK3β(h), against GCN2 [2] and on GSK3α(h) was more than 6.00 each time.

In the case of `CCOCCn1cc(-c2ccc(-n3nnc4cnc(N[C@@H]5CC[C@@H](C(N)=O)C5)nc43)cn2)cn1` [A229, (1R,3R)-3-(3-{6-[1-(2-ethoxy-ethyl)-1H-pyrazol-4-yl]-pyridin-3-yl}-3H-[1,2,3]triazolo[4,5-d]pyrimidin-5-ylamino)-cyclopentanecarboxylic acid amide], the pIC50 on GSK3β(h), at GCN2 [2] and on GSK3α(h) was more than 6.00 throughout.

Regarding `CC(C)(O)Cn1cc(-c2ccc(-n3nnc4cnc(N[C@@H]5CC[C@@H](C(N)=O)C5)nc43)cc2)cn1` [A233, (1R,3R)-3-(3-{4-[1-(2-hydroxy-2-methyl-propyl)-1H-pyrazol-4-yl]-phenyl}-3H-[1,2,3]triazolo[4,5-d]pyrimidin-5-ylamino)-cyclopentanecarboxylic acid amide], the pIC50 on GSK3β(h), against GCN2 [2] and on GSK3α(h) was more than 6.00 throughout.

`NC(=O)[C@@H]1CC[C@@H](Nc2ncc3nnn(-c4ccc(-c5cnn(CCn6ncccc6=O)c5)cc4)c3n2)C1` [A237, (1R,3R)-3-[3-(4-{1-[2-(6-oxo-6H-pyridazin-1-yl)-ethyl]-1H-pyrazol-4-yl}-phenyl)-3H-[1,2,3]triazolo[4,5-d]pyrimidin-5-ylamino]-cyclopentanecarboxylic acid amide]: the pIC50 on GSK3β(h), against GCN2 [2] and on GSK3α(h) was more than 6.00 each time.

As for `CS(=O)(=O)N1CC[C@@H](Nc2ncc3nnn(-c4ccc5ncccc5c4)c3n2)C1` [A269, ((R)-1-methanesulfonyl-pyrrolidin-3-yl)-(3-quinolin-6-yl-3H-[1,2,3]triazolo[4,5-d]pyrimidin-5-yl)-amine], the negative logarithm of the IC50 (pIC50) at GSK3β(h), on GCN2 [2] and on GSK3α(h) was more than 6.00 in each case.

On to `NC(=O)[C@@H]1CC[C@@H](Nc2ncc3nnn(-c4ccc(OCC5CCNCC5)cc4)c3n2)C1` [A279, (1R,3R)-3-{3-[4-(piperidin-4-ylmethoxy)-phenyl]-3H-[1,2,3]triazolo[4,5-d]pyrimidin-5-ylamino}-cyclopentanecarboxylic acid amide], for which the pIC50 on GSK3β(h), against GCN2 [2] and on GSK3α(h) was more than 6.00 each time.

Regarding `CCOc1ccc(-n2nnc3cnc(N[C@@H]4CC[C@@H](c5nnc(C)o5)C4)nc32)cc1` [A281, [3-(4-ethoxy-phenyl)-3H-[1,2,3]triazolo[4,5-d]pyrimidin-5-yl]-[(1R,3R)-3-(5-methyl-[1,3,4]oxadiazol-2-yl)-cyclopentyl]-amine], the pIC50 at GSK3β(h), at GCN2 [2] and at GSK3α(h) was more than 6.00 in each case.

Take `CCOc1ccc(-n2nnc3cnc(N[C@@H]4CC[C@@H](c5nnc(N)o5)C4)nc32)cc1` [A283, [(1R,3R)-3-(5-amino-[1,3,4]oxadiazol-2-yl)-cyclopentyl]-[3-(4-ethoxy-phenyl)-3H-[1,2,3]triazolo[4,5-d]pyrimidin-5-yl]-amine]: the values for the pIC50 at GSK3β(h), at GCN2 [2] and at GSK3α(h) were 5.30 to 6.00, more than 6.00 and more than 6.00, respectively.

As for `COc1ccc(-n2nnc3cnc(N[C@@H]4CCN(C(N)=O)C4)nc32)cc1` [A285, (R)-3-[3-(4-Methoxy-phenyl)-3H-[1,2,3]triazolo[4,5-d]pyrimidin-5-ylamino]-pyrrolidine-1-carboxylic acid amide], the pIC50 is 5.30 to 6.00 on GSK3β(h), more than 6.00 against GCN2 [2] and more than 6.00 at GSK3α(h).

For the compound `CCOc1ccc(-n2nnc3cnc(N[C@@H]4CC[C@@H](C(=O)NS(C)(=O)=O)C4)nc32)cc1` [A286, N-{(1R,3R)-3-[3-(4-ethoxy-phenyl)-3H-[1,2,3]triazolo[4,5-d]-pyrimidin-5-ylamino]-cyclopentanecarbonyl}-methanesulfonamide], the pIC50 at GSK3β(h), on GCN2 [2] and on GSK3α(h) was more than 6.00 each time.

As to `CC(C)(O)c1ccc(-n2nnc3cnc(N[C@@H]4CC[C@@H](C(N)=O)C4)nc32)cc1` [A289, (1R,3R)-3-{3-[4-(1-hydroxy-1-methyl-ethyl)-phenyl]-3H-[1,2,3]triazolo[4,5-d]pyrimidin-5-ylamino}-cyclopentanecarboxylic acid amide], the pIC50 at GSK3β(h), at GCN2 [2] and at GSK3α(h) was more than 6.00 each time.
